Measured values reported in PubChem BioAssay AID1963959 (Molecular Pharmacology Branch, DTP, NCI, 2024).

Test system: T-47D spheroids with HUVEC/MSC, viability
Test: Anticancer human tumor T-47D cell line growth inhibition [PI3K];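 further: spheroids exposed to agents for seven days before reading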;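 on viability, T/C: percent of DMSO vehicle control luminescence so 100% = untreated growth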
Settings: for viability, T/C: stronger effect = lower value; active means viability on the fitted dose curve at most 10% of control; inactive means the rest
Text: Combinatorial screen of targeted agents with the PI3K inhibitors inavolisib, alpelisib, duvelisib, and copanlisib in multi-cell type tumor spheroids
A high-throughput screen of multi-cell type tumor spheroids was designed to identify active combinations of targeted small molecules and PI3K pathway inhibitors. Complex spheroids include a stromal component modeled by human endothelial cells (HUVEC) and fibroblasts modeled by human mesenchymal stem cells (MSCs). The concentration ranges selected for each drug and investigational agent were based upon clinically achievable concentrations if the clinical Cmax of the agent was known.
Compounds. The drugs and investigational agents: inavolisib (NSC800729), alpelisib (NSC765974), duvelisib (NSC772469), copanlisib (NSC816437), ipatasertib (NSC767898), afuresertib (NSC778305), talazoparib (NSC767125), sapanisertib (NSC764658), selumetinib (NSC741078), tovorafenib (DAY101, NSC766906), vemurafenib (NSC761431), ravoxertinib (NSC781343), sotorasib (NSC818433), MRTX1133 (NSC 836407), abemaciclib (NSC 768073), palbociclib (NSC758247), venetoclax (NSC 766270), SY5609 (NSC837396), enzalutamide (NSC755605), and darolutamide (NSC825331), were obtained from the National Cancer Institute (NCI) Developmental Therapeutics Program Chemical Repository. The FDA-approved anticancer drug set is available from the NCI Developmental Therapeutics Program. […] The stock solutions were prepared in dimethyl sulfoxide (DMSO, Sigma-Aldrich, St. Louis, MO, cat. D2650) at 800-fold the tested concentration and stored at -70 degrees C prior to their use. All drugs and investigational agents were tested over a range starting from a high concentration at or near the clinical Cmax and decreasing in half-log increments. If the clinical Cmax for an agent had not been determined, the highest concentration tested was 10 microM.
Cell Culture. All cells were maintained in an incubator at 37 degrees C and 5% CO2 with 95% humidity. The PDC lines were cultured according to standard operating procedures established by the NCI PDMR (https://pdmr.cancer.gov/sops/default.htm). All PDCs were thawed and cultured in Matrigel-coated flasks prepared with a working solution of 1X Ham's F-12 nutrient mix, without supplementation (Invitrogen, Waltham, MA, cat. 11765054), 100 U/mL penicillin-streptomycin (Invitrogen, cat. 15140122), and 2.5% Matrigel (Corning Inc., Corning, NY, cat. 354248) for the first three passages. The 354836-022-R-J1-PDC, 475296-252-R-J1-PDC, and 997726-040-R-J2-PDC lines were cultured in 6A media, which includes advanced DMEM/F-12 (Thermo Fisher Scientific, cat. 12634028), 10 mM HEPES (Thermo Fisher Scientific, cat. 15630080), 1X GlutaMAX supplement (Thermo Fisher Scientific, cat. 35050061), 0.1 mg/mL primocin (InvivoGen, San Diego, CA, cat. ant-pm-2), 10% defined fetal bovine serum, heat inactivated (HyClone Laboratories Inc., Logan, UT, cat. SH30070.03HI), 50% L-WRN conditioned media (ATCC, cat. CRL-3276), 1.25 mM N-Acetyl-L-cysteine (Sigma-Aldrich, cat. A9165), 10 mM nicotinamide (Sigma-Aldrich, cat. N0636), 1X B-27 supplement (Thermo Fisher Scientific, cat. 17504044), 1X N-2 supplement (Thermo Fisher Scientific, cat. 17502048), and 10 microM Y-27632 dihydrochloride (Tocris Bioscience, Bristol, United Kingdom, cat. 1254). The 624824-186-R-J2-PDC line was cultured in 6C/Colon 1B media, which includes all 6A media components plus 50 ng/mL human EGF recombinant protein (Thermo Fisher Scientific, cat. PHG0311). […]

[1] = curve of first compound, second compound 0.0316 µM
[2] = curve of first compound, second compound 0.1 µM
[3] = curve of first compound, second compound 0.316 µM
[4] = curve of first compound, second compound 1 µM
[5] = second compound 0.0316 µM, first compound 0.0316 µM
[6] = second compound 0.0316 µM, first compound 0.1 µM
[7] = second compound 0.0316 µM, first compound 0.316 µM
[8] = second compound 0.0316 µM, first compound 1 µM
[9] = second compound 0.0316 µM, first compound 3.16 µM
[10] = second compound 0.0316 µM, first compound 10 µM
[11] = second compound 0.1 µM, first compound 0.0316 µM
[12] = second compound 0.1 µM, first compound 0.1 µM
[13] = second compound 0.1 µM, first compound 0.316 µM
[14] = second compound 0.1 µM, first compound 1 µM
[15] = second compound 0.1 µM, first compound 3.16 µM
[16] = second compound 0.1 µM, first compound 10 µM
[17] = second compound 0.316 µM, first compound 0.0316 µM
[18] = second compound 0.316 µM, first compound 0.1 µM
[19] = second compound 0.316 µM, first compound 0.316 µM
[20] = second compound 0.316 µM, first compound 1 µM
[21] = second compound 0.316 µM, first compound 3.16 µM
[22] = second compound 0.316 µM, first compound 10 µM
[23] = second compound 1 µM, first compound 0.0316 µM
[24] = second compound 1 µM, first compound 0.1 µM
[25] = second compound 1 µM, first compound 0.316 µM
[26] = second compound 1 µM, first compound 1 µM
[27] = second compound 1 µM, first compound 3.16 µM
[28] = second compound 1 µM, first compound 10 µM

CC(C)NCC(C(=O)N1CCN(c2ncnc3c2C(C)CC3O)CC1)c1ccc(Cl)cc1 (stereo unspecified) + CC(Nc1ncnc2nc[nH]c12)c1cc2cccc(Cl)c2c(=O)n1-c1ccccc1
inactive: viability, T/C [5] 107% | viability, T/C [6] 73.4% | viability, T/C [7] 91.6% | viability, T/C [8] 81.4% | viability, T/C [9] 59.9% | viability, T/C [10] 57.2% | viability, T/C [11] 111% | viability, T/C [12] 75.5% | viability, T/C [13] 88.5% | viability, T/C [14] 66.2% | viability, T/C [15] 60.2% | viability, T/C [16] 63.6% | viability, T/C [17] 98.3% | viability, T/C [18] 78.6% | viability, T/C [19] 77.4% | viability, T/C [20] 65.9% | viability, T/C [21] 65.2% | viability, T/C [22] 62.2% | viability, T/C [23] 79.8% | viability, T/C [24] 104% | viability, T/C [25] 90.1% | viability, T/C [26] 63.4% | viability, T/C [27] 61.9% | viability, T/C [28] 60.4% | viability, T/C (second compound 3.16 µM, first compound 0.0316 µM) 98.7% | viability, T/C (second compound 3.16 µM, first compound 0.1 µM) 84.4% | viability, T/C (second compound 3.16 µM, first compound 0.316 µM) 81.7% | viability, T/C (second compound 3.16 µM, first compound 1 µM) 87.5% | viability, T/C (second compound 3.16 µM, first compound 3.16 µM) 55.3% | viability, T/C (second compound 3.16 µM, first compound 10 µM) 62.9% | viability, T/C (second compound 10 µM, first compound 0.0316 µM) 93.5% | viability, T/C (second compound 10 µM, first compound 0.1 µM) 93.1% | viability, T/C (second compound 10 µM, first compound 0.316 µM) 87.3% | viability, T/C (second compound 10 µM, first compound 1 µM) 74% | viability, T/C (second compound 10 µM, first compound 3.16 µM) 67.3% | viability, T/C (second compound 10 µM, first compound 10 µM) 57.9%
> 10 µM: IC50 [1] | IC50 [2] | IC50 [3] | IC50 [4] | IC50 (curve of first compound, second compound 3.16 µM) | IC50 (curve of first compound, second compound 10 µM)

CCN1CCN(Cc2ccc(Nc3ncc(F)c(-c4cc(F)c5nc(C)n(C(C)C)c5c4)n3)nc2)CC1
> 1 µM: IC50 (curve of compound)
inactive: viability, T/C (compound 0.00316 µM) 104% [middle of 4 runs] | viability, T/C (compound 0.01 µM) 91.4% [middle of 4 runs] | viability, T/C (compound 0.0316 µM) 102% [middle of 4 runs] | viability, T/C (compound 0.1 µM) 90.4% [middle of 4 runs] | viability, T/C (compound 0.316 µM) 90.4% [middle of 4 runs] | viability, T/C (compound 1 µM) 91.2% [middle of 4 runs]

CC1(C)CCC(Nc2ncc(C(F)(F)F)c(-c3c[nH]c4c(P(C)(C)=O)c(C#N)ccc34)n2)CN1 (stereo unspecified) + CC(Nc1ccc2c(c1)OCCn1cc(N3C(=O)OCC3C(F)F)nc1-2)C(N)=O
< 0.0316 µM: IC50 [3] | IC50 [4]
inactive: viability, T/C (second compound 0.00316 µM, first compound 0.0316 µM) 66.4% | viability, T/C (second compound 0.00316 µM, first compound 0.1 µM) 70% | viability, T/C (second compound 0.00316 µM, first compound 0.316 µM) 59.1% | viability, T/C (second compound 0.00316 µM, first compound 1 µM) 73.5% | viability, T/C (second compound 0.00316 µM, first compound 3.16 µM) 76.9% | viability, T/C (second compound 0.00316 µM, first compound 10 µM) 48.8% | viability, T/C (second compound 0.01 µM, first compound 0.0316 µM) 72.3% | viability, T/C (second compound 0.01 µM, first compound 0.1 µM) 68.3% | viability, T/C (second compound 0.01 µM, first compound 0.316 µM) 67.5% | viability, T/C (second compound 0.01 µM, first compound 1 µM) 72.3% | viability, T/C (second compound 0.01 µM, first compound 3.16 µM) 82.4% | viability, T/C (second compound 0.01 µM, first compound 10 µM) 47.6% | viability, T/C [5] 65.4% | viability, T/C [6] 68.3% | viability, T/C [7] 60.2% | viability, T/C [8] 68.7% | viability, T/C [9] 67% | viability, T/C [10] 36.2% | viability, T/C [11] 62% | viability, T/C [12] 65.2% | viability, T/C [13] 46.3% | viability, T/C [14] 47.3% | viability, T/C [15] 61.4% | viability, T/C [16] 34.2% | viability, T/C [17] 53.1% | viability, T/C [18] 42.6% | viability, T/C [19] 37.8% | viability, T/C [20] 36.2% | viability, T/C [21] 40.4% | viability, T/C [22] 17.1% | viability, T/C [23] 40.8% | viability, T/C [24] 30.8% | viability, T/C [25] 29.7% | viability, T/C [26] 29.5% | viability, T/C [27] 26.4% | viability, T/C [28] 6.28%
4.42 µM: IC50 [2]
5.84 µM: IC50 [1]
> 10 µM: IC50 (curve of first compound, second compound 0.00316 µM) | IC50 (curve of first compound, second compound 0.01 µM)
